Measured values published in PubChem BioAssay AID463229 (Broad Institute, 2010).
Active and inactive are the calls of the source.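 How the source made its calls: active means compounds raising the signal whose fitted half-maximal concentration is at or below their top tested dose (cut at about 25 µM in these data); inconclusive means flat fit at 30 to 70% activity, or a poor fit; inactive means the rest.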

Test system: INS-1E rat beta cells, no cytokines, CellTiter-Glo ATP, 48 h
Experiment: ATP level change in INS-1E without cytokines, dose response, counter-screen for beta-cell apoptosis protection project, INS-1E rat cells, ATP luminescence, cherry pick (AID 463229)

Point of comparison: `CC(=O)NC(c1cccs1)c1cc([N+](=O)[O-])c2cccnc2c1O` (centres undefined), AC50 10.9 µM. Against it:
- Cn1nc(C(C)(C)C)cc1C(=O)NCc1cc(F)cc2c1OCOC2 — 1.9-fold lower, 5.86 µM
- Cc1ccc(Nc2c(-c3ccccn3)nc3cc(C)ccn23)cc1 — within 1.5-fold, 7.49 µM
- CCC1(c2ccc(F)cc2)NC(=O)N(CC(=O)Nc2ccc(-c3nc4ccc(C)cc4s3)cc2)C1=O (centres undefined) — within 1.5-fold, 12.4 µM
- N#CC1=C(N)Oc2c(ccc3cccnc23)C1c1cccnc1 (centres undefined) — within 1.5-fold, 7.5 µM
- Oc1c(C(Nc2ccccn2)c2ccccn2)ccc2cccnc12 (centres undefined) — 1.8-fold lower, 6.16 µM
- O=C(Nc1ccc(OC(F)F)c(Cl)c1)C(c1ccccc1)c1ccccc1 — within 1.5-fold, 13 µM
- CCCCC(=O)N1C/C=C\C(c2ccc(OC)cc2)N(Cc2ccc(F)cc2)C(=O)[C@H]1Cc1ccccc1 (some centres undefined) — within 1.5-fold, 7.74 µM
- CC(=O)c1ccc(OCc2cc(C(=O)N3CCCCC3c3cccnc3)no2)cc1 (centres undefined) — 2.1-fold higher, 22.4 µM
- O=C(CSC1c2ccccc2-c2ccccc21)N/N=C/c1ccccc1O — 1.6-fold lower, 6.8 µM
- O=C(Nc1ccc(Cl)cc1)Nc1ccc(Cl)c(Cl)c1 — 1.6-fold lower, 6.98 µM
- CCN1/C(=C/C=C/c2oc3ccc(-c4ccccc4)cc3[n+]2CC)Oc2ccc(-c3ccccc3)cc21 — 14-fold lower, 0.78 µM
- Oc1ccccc1/C=N/Nc1ncc(Br)cn1 — 1.8-fold higher, 19.7 µM
- Nc1ccc2c(c1)C(=O)C(=O)c1ccccc1-2 — 9.1-fold lower, 1.2 µM
- CCOC(=O)N1CCN(S(=O)(=O)c2ccc(C(=O)NNc3nc4ccc(Cl)cc4s3)cc2)CC1 — 2-fold lower, 5.43 µM
- Oc1ccc(CNc2ccccc2)c2cccnc12 — 2.1-fold higher, 22.8 µM
- CCOC(=O)c1c(C)[nH]c(C(=O)OCC(=O)NC(C)(C)C)c1C — within 1.5-fold, 13.1 µM
- O=C(NCc1cccnc1)c1ccc(-c2cc3ccccc3oc2=O)cc1 — 2-fold lower, 5.35 µM
- CCCCCCSc1ccc([C@H]2N[C@@](Cc3ccccc3)(C(=O)OC)[C@H]3C(=O)N(C)C(=O)[C@@H]23)cc1 — within 1.5-fold, 14.6 µM
- O=C(/C=C/NNC(=O)c1ccccc1)c1ccc([N+](=O)[O-])cc1 — 1.9-fold lower, 5.76 µM
- CCn1c(-c2ccc(N(C)C)cc2)nc2ccccc21 — 2.9-fold lower, 3.75 µM
- O=C(Cc1cccs1)N/N=C\c1ccc([N+](=O)[O-])s1 — 1.5-fold lower, 7.04 µM
- CC(=O)Oc1c(I)cc(I)cc1C(=O)Nc1ccc(Cl)cc1 — within 1.5-fold, 14.8 µM
- O=C(Nc1nc2ccc(F)cc2s1)c1ccccn1 — 2.5-fold lower, 4.43 µM
- O=c1nccc(N/N=C/c2ccccc2O)[nH]1 — 2.1-fold higher, 23.3 µM
- Cc1nc2ccccc2c2oc(C(=O)Nc3ccc(C(C)C)cc3)cc12 — 2-fold higher, 21.6 µM
- COc1ccc2c(c1)c(/C=N/Nc1nc3ccccc3[nH]1)c(C)n2C — within 1.5-fold, 14.7 µM
- S=C(NCc1ccc(Cl)cc1)NC12CC3CC(CC(C3)C1)C2 — within 1.5-fold, 13.9 µM
- Cc1cccc(OCc2n(CC(=O)OC3CC(C)CCC3C(C)C)c3ccccc3[n+]2C)c1 (centres undefined) — 2.6-fold lower, 4.12 µM
- Cc1cc(-n2c(SCC(=O)Nc3ccc(F)c(F)c3)nc3n[nH]c(C)c3c2=N)ccc1Cl — 1.9-fold lower, 5.84 µM
- Cc1cc(C)n(-c2nc3ccccc3c(=O)n2OCC#N)n1 — within 1.5-fold, 12.4 µM
- O=C(N/N=C/c1ccccc1O)c1cccc(C(F)(F)F)c1 — 1.5-fold lower, 7.18 µM
- Cc1ccc(S(=O)(=O)NCc2ccncc2)c(C)c1C — 2.8-fold lower, 3.83 µM
- CCOc1cc(C)c(S(=O)(=O)Nc2ccc3cn[nH]c3c2)cc1C — within 1.5-fold, 9.86 µM
- CC(C)(C)c1nnc(N/N=C/c2cc(Br)ccc2O)n(N)c1=O — 2.7-fold lower, 3.97 µM
- CCOc1cc(/C=N/NC(=O)c2cc(-c3cccc(OC)c3)nc3ccccc23)ccc1O — 1.7-fold lower, 6.59 µM
- COc1cccc(/C=N/NC(=O)c2ccoc2C)c1O — within 1.5-fold, 11 µM
- CC1C/C(=C/c2ccncc2)C(=O)/C(=C/c2ccncc2)C1 (centres undefined) — 2.4-fold lower, 4.62 µM
- COc1ccc(-c2ccc3c(c2)S(=O)(=O)c2cccc(C(=O)NCCOc4ccccc4Cl)c2C3=O)cc1OC — 3.1-fold lower, 3.5 µM
- Cc1sc2ncnc(NCc3cccs3)c2c1C — 1.7-fold lower, 6.4 µM
- Cc1oc2c(c1C(=O)N1CCC(C)CC1)C(=O)c1ccccc1C2=O — within 1.5-fold, 10.8 µM
- CC(=O)C1=C(c2ccc(Br)cc2)C(=O)c2ccccc2C1=O — 3-fold lower, 3.63 µM
- CN1/C(=C\C(=S)NC(=O)c2ccccc2Cl)C(C)(C)c2ccccc21 — within 1.5-fold, 7.37 µM
- CCCCC(=O)NC(c1ccco1)c1cc(Cl)c2cccnc2c1O (centres undefined) — within 1.5-fold, 12.4 µM
- COc1ccc(-c2sc3ccccc3c2-c2ccc(OCCN3CCCCC3)cc2)cc1 — within 1.5-fold, 14.8 µM
- CCCNC1=C(N(C(C)=O)c2cccc(F)c2)C(=O)c2ccccc2C1=O — 3.6-fold lower, 3.06 µM
- Cc1ccccc1-c1cc(C(=O)Nc2sc(C)c(C)c2C(N)=O)c2ccccc2n1 — 1.6-fold lower, 6.8 µM
- Cc1ccc(C2C(C=Nc3c(C)n(C)n(-c4ccccc4)c3=O)=C(c3ccccc3)Oc3ccccc32)cc1 (centres undefined) — within 1.5-fold, 7.38 µM
- CC(C)(C)C(=O)NC(=S)NNC(=O)c1ccc(-c2ccccc2)cc1 — 1.9-fold lower, 5.71 µM
- Oc1ccc(-[n+]2c(-c3ccccc3)cc(-c3ccccc3)cc2-c2ccccc2)cc1 — 2.8-fold lower, 3.96 µM
- C/C(=N\NC(=O)c1cc(Br)ccc1O)c1ccccn1 — within 1.5-fold, 7.82 µM
- C(C#CCCCCCCCCC[n+]1ccccc1)#CCCCCCCCCC[n+]1ccccc1 — 5.7-fold lower, 1.9 µM
- COC(/C(=N/O)c1ccc(Cl)cc1)c1ccccc1 (centres undefined) — 4.1-fold lower, 2.66 µM
- Cc1occc1C(=O)N/N=C/c1c(O)ccc2ccccc12 — within 1.5-fold, 7.95 µM
- COC(=O)C1=C(C)N(Cc2ccccc2)C(=NCc2cccc(C(F)(F)F)c2)N[C@H]1c1cccc(C(F)(F)F)c1 — within 1.5-fold, 7.34 µM
- [O-][N+]1=c2ccc(Nc3ccccc3)cc2=NC12CCCCC2 — within 1.5-fold, 12.5 µM
- O=C(Nc1nc(-c2ccccn2)cs1)c1ccccc1-n1cnnn1 — 2-fold lower, 5.32 µM
- CCCCNc1c(-c2ccc(SC3CCCCC3)cc2)nc2ccccn12 — 2.1-fold lower, 5.31 µM
- COC(=O)c1cccc(NC(=O)Nc2ccc(Cl)c(Cl)c2)c1 — within 1.5-fold, 10.4 µM
- CCC[N+]1(CC#CCC(c2ccccc2)c2ccccc2)CCCCC1 — 5.4-fold lower, 2.03 µM
- COc1ccc(-c2c[n+]3c(n2-c2ccccc2)CCCCC3)cc1 — 4.6-fold lower, 2.35 µM
- CCC(=O)NC(c1cccs1)c1ccc2cccnc2c1O (centres undefined) — 3.2-fold lower, 3.37 µM
- CC1CN(CC(O)COC(c2ccc(Cl)cc2)c2ccc(Cl)cc2)CC(C)O1 (centres undefined) — within 1.5-fold, 14.2 µM
- O=C(CN(Cc1ccco1)Cc1ccco1)Nc1cc(S(=O)(=O)N2CCCCC2)ccc1Cl — within 1.5-fold, 7.47 µM
- C/C(=N\NC(=O)Cc1ccc(Cl)cc1)c1ccccn1 — 2.2-fold lower, 4.89 µM
- CCN(Cc1ccccc1)C(c1ccc(C(F)(F)F)cc1)c1nnnn1C(C)(C)C (centres undefined) — 2.3-fold lower, 4.83 µM
- CCCCOc1ncnc2c1[nH]c1ccc(F)cc12 — 2.1-fold lower, 5.3 µM
- Cc1cc(Nc2cccc(F)c2)nc(NCc2ccccc2)n1 — 2.1-fold lower, 5.15 µM
- COc1ccc2[nH]c3c(C)c4ccncc4c(C)c3c2c1 — 2.6-fold lower, 4.13 µM
- Cc1ccc(C(=O)C[n+]2cc(-c3ccc(C)cc3)n3c2CCCCC3)cc1 — 7.8-fold lower, 1.4 µM
- Cc1cc([N+](=O)[O-])c2ccccc2[n+]1[O-] — 24-fold lower, 0.454 µM
- CC1(C)CCN2CCC(C)(C)c3c(O)ccc1c32 — within 1.5-fold, 13.2 µM
- COc1ccc(Cn2c(-c3ccc(C)cc3)c[n+]3ccccc23)cc1 — 2.1-fold lower, 5.23 µM
- O=C(Nc1ccc(Cl)cc1)Nc1csc([N+](=O)[O-])c1 — within 1.5-fold, 7.65 µM
- N#Cc1c2ccc([N+](=O)[O-])cc2[n+]([O-])n1-c1ccccc1 — 2-fold lower, 5.32 µM
- S=c1[nH]nc(-c2cc(-c3ccccc3)n[nH]2)n1/N=C/C(Br)=C/c1ccccc1 — within 1.5-fold, 8.81 µM
- O=C(N/N=C/c1ccc(O)cc1O)c1ccc(CN2C(=O)c3cccc4cccc2c34)cc1 — 2.8-fold lower, 3.89 µM
- Cc1ccc(-c2cc(-c3ccccc3)cc(-c3ccccc3)[n+]2-c2ccccc2)cc1 — 5.2-fold lower, 2.08 µM
- COc1ccc(C)cc1NS(=O)(=O)c1ccc(NC(=O)CN(c2cc([N+](=O)[O-])ccc2C)S(C)(=O)=O)cc1 — 9.8-fold lower, 1.11 µM
- NC(=S)N/N=C/c1ccc(C23CC4CC(CC(C4)C2)C3)cc1 — within 1.5-fold, 12.2 µM
- CSc1nc(N)nc2c1ncn2CC(=O)N1CCN(Cc2c(C)cc(C)cc2C)CC1 — 4.1-fold lower, 2.65 µM
- COc1ccc(C(=O)N/N=C/c2cc(Br)ccc2O)cc1OC — 1.5-fold lower, 7.2 µM
- O=C(N/N=C/c1cc(Br)ccc1O)C(=O)Nc1ccccc1OC(F)(F)C(F)F — 1.6-fold lower, 6.77 µM
- CC(C)(C)c1cc([N+](=O)[O-])cc(C(C)(C)C)c1O — 3.9-fold lower, 2.8 µM
- O=C(NCc1nc(-c2ccc(C(F)(F)F)cc2)no1)Nc1cc(Cl)cc(Cl)c1 — 1.6-fold lower, 6.94 µM
- Oc1c(CN2CCN(c3ccccc3)CC2)cc(Br)c2cccnc12 — 1.9-fold lower, 5.87 µM
- C=C(C(=O)c1ccccc1)C(C)C(=C)C(=O)c1ccccc1 — within 1.5-fold, 7.84 µM
- Nc1c(N(CCC2=CCCCC2)C(=O)COc2ccc(F)cc2)c(=O)[nH]c(=O)n1Cc1ccccc1 — 2.4-fold lower, 4.49 µM
- C#CCOCCOCCOCCNc1nc(N2CCN(C(=O)CCCCCCCCCCNC(=O)Cn3cc(CCCCCN)nn3)CC2)nc(N2CCN(C(=O)CCCCCCCCCCNC(=O)[C@H]([C@@H](C)CC)n3cc(CCCCN=C(N)N)nn3)CC2)n1 — within 1.5-fold, 8.89 µM
- CCn1c(Cl)c(C=O)s/c1=N\S(=O)(=O)c1ccccc1 — 1.6-fold lower, 6.63 µM
- Cc1oc2c(c1C(=O)c1ccccc1)C(=O)C(=O)c1ccccc1-2 — 3.1-fold lower, 3.52 µM
- Cc1nnsc1-c1onc(C)c1C(=O)Nc1cc(Cl)cc(Cl)c1 — 1.5-fold higher, 16.5 µM
- S=C(Nc1ccc(Nc2ccccc2)cc1)Nc1ccccn1 — within 1.5-fold, 11.5 µM
- Cc1ccccc1NC(=S)N/N=C/c1ccc(O)cc1O — within 1.5-fold, 14.6 µM
- Cc1cc2nc(NCCCO)n(CC(=O)c3cc(C(C)(C)C)c(O)c(C(C)(C)C)c3)c2cc1C — within 1.5-fold, 8.83 µM
- c1ccc2c(c1)ncn2CCCCOc1ccc2c(c1)CCC2 — within 1.5-fold, 7.37 µM
- CC(=O)Nc1ccc(S(=O)(=O)NC2=C(N3CCN(c4ccc(F)cc4)CC3)C(=O)c3ccccc3C2=O)cc1 — within 1.5-fold, 7.51 µM
- N#CCC(=O)N/N=C/c1cc(-c2ccccc2)n(-c2ccc(Cl)cc2)c1-c1ccccc1 — 4.8-fold lower, 2.29 µM
- O=C(/C=C/c1cccc([N+](=O)[O-])c1)c1ccc([N+](=O)[O-])o1 — 2.8-fold lower, 3.95 µM
- O=[N+]([O-])c1ccc(/C=N/n2c(CO)nc3ccccc32)s1 — within 1.5-fold, 10.8 µM
- CC(C)(C)c1cc(C=C(C#N)C#N)cc(C(C)(C)C)c1O — 11-fold lower, 0.984 µM
- CN1CCN(c2ccc(CNS(=O)(=O)Cc3cccc(C(F)(F)F)c3)cc2)CC1 — within 1.5-fold, 8.93 µM
- c1ccc(CSc2ccc(-c3ccccn3)nn2)cc1 — 1.7-fold higher, 18.8 µM
- Cc1cccc(/C=C/C(=O)c2ccc([N+](=O)[O-])o2)c1 — 2.6-fold lower, 4.26 µM
- COc1ccc(C2C(O)C(c3c[nH]c4ccccc34)=NN2C(=O)CCl)cc1 (centres undefined) — 3.8-fold lower, 2.9 µM
- COc1ccc(Cl)c(Cn2c(NCc3ccco3)nc3c2c(=O)n(C)c(=O)n3C)c1 — within 1.5-fold, 13.1 µM
- Cc1ccc(N=Nc2ccc(O)c3ncccc23)cc1 — 1.7-fold lower, 6.58 µM
- Cc1[nH]n(-c2ccccc2)c(=O)c1/C=N/Nc1nncc(-c2ccccc2)n1 — 8.9-fold lower, 1.22 µM

`Cc1c(C(=O)N(Cc2ccccc2)C(C)C)oc2ccc(S(=O)(=O)N3CCOCC3)cc12` was tested, and the AC50 was > 26 µM (inactive).
